Laboratory results taken from the supplement of paper PMC10307832.

Assays:
Test in all cases: relative viability (nuclei count vs DMSO), 5 days (fraction); higher = more cells survive
Dinaciclib = compound: CCc1cnn2c(NCc3ccc[n+]([O-])c3)cc(N3CCCC[C@H]3CCO)nc12 [Dinaciclib]
How it was run: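 Acceptance criteria were a control CV below 25% and at least one doubling per plate. Lung cancer cell lines in 1536-well plates got five library-drug doses (not always all listed) √10 apart by pinning and were left 5 days with no medium change. Viability divides treated-well nuclei by vehicle-well nuclei and is the median across plates. Nuclei were counted by MetaXpress from 4× Hoechst images.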

Dinaciclib + Trametinib = compound: CCc1cnn2c(NCc3ccc[n+]([O-])c3)cc(N3CCCC[C@H]3CCO)nc12 [Dinaciclib] + CC(=O)Nc1cccc(-n2c(=O)n(C3CC3)c(=O)c3c(Nc4ccc(I)cc4F)n(C)c(=O)c(C)c32)c1 [Trametinib] (partner 0.02 µM)
How it was run: (§1)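 Lung cancer cell lines in 1536-well plates were dosed by pin tool the day after seeding, either with one drug alone or with a fixed anchor-drug dose plus five library-drug doses (not always all listed) in √10 steps. After 5 days, cells were fixed and their nuclei stained in one step (final 0.05% Triton X-100, 1% formaldehyde, 1 ug/ml Hoechst), then counted on 4× images. Relative viability is the nuclei count in treated wells divided by that in vehicle wells. Values are medians of duplicate plates.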

Dinaciclib + AZD7762 = compound: CCc1cnn2c(NCc3ccc[n+]([O-])c3)cc(N3CCCC[C@H]3CCO)nc12 [Dinaciclib] + NC(=O)Nc1cc(-c2cccc(F)c2)sc1C(=O)N[C@H]1CCCNC1 [AZD7762] (partner 0.2 µM)
How it was run: as §1

Dinaciclib + Lapatinib = compound: CCc1cnn2c(NCc3ccc[n+]([O-])c3)cc(N3CCCC[C@H]3CCO)nc12 [Dinaciclib] + CS(=O)(=O)CCNCc1ccc(-c2ccc3ncnc(Nc4ccc(OCc5cccc(F)c5)c(Cl)c4)c3c2)o1 [Lapatinib] (partner 2 µM)
How it was run: as §1

Dinaciclib + Vorinostat = compound: CCc1cnn2c(NCc3ccc[n+]([O-])c3)cc(N3CCCC[C@H]3CCO)nc12 [Dinaciclib] + O=C(CCCCCCC(=O)Nc1ccccc1)NO [Vorinostat] (partner 1 µM)
How it was run: as §1

Row | Cell Line | relative viability (Dinaciclib; 0.009487 µM) | relative viability (Dinaciclib; 0.03 µM) | relative viability (Dinaciclib; 0.09487 µM) | relative viability (Dinaciclib; 0.3 µM) | relative viability (Dinaciclib + Trametinib; first compound 0.009487 µM) | relative viability (Dinaciclib + Trametinib; first compound 0.03 µM) | relative viability (Dinaciclib + Trametinib; first compound 0.09487 µM) | relative viability (Dinaciclib + Trametinib; first compound 0.3 µM) | relative viability (Dinaciclib + AZD7762; first compound 0.009487 µM) | relative viability (Dinaciclib + AZD7762; first compound 0.03 µM) | relative viability (Dinaciclib + AZD7762; first compound 0.09487 µM) | relative viability (Dinaciclib + AZD7762; first compound 0.3 µM) | relative viability (Dinaciclib + Lapatinib; first compound 0.009487 µM) | relative viability (Dinaciclib + Lapatinib; first compound 0.03 µM) | relative viability (Dinaciclib + Lapatinib; first compound 0.09487 µM) | relative viability (Dinaciclib + Lapatinib; first compound 0.3 µM) | relative viability (Dinaciclib + Vorinostat; first compound 0.009487 µM) | relative viability (Dinaciclib + Vorinostat; first compound 0.03 µM) | relative viability (Dinaciclib + Vorinostat; first compound 0.09487 µM) | relative viability (Dinaciclib + Vorinostat; first compound 0.3 µM)
1 | NCI-H838 | 0.88 | 0.173 | 0.128 | 0.137 | 0.315 | 0.127 | 0.0741 | 0.0706 | 0.993 | 0.601 | 0.622 | 0.553 | 0.239 | 0.106 | 0.0848 | 0.109 | 0.496 | 0.146 | 0.145 | 0.15
2 | NCI-H3122 | 0.979 | 0.182 | 0.115 | 0.102 | 0.292 | 0.102 | 0.0935 | 0.0911 | 1.07 | 0.107 | 0.0953 | 0.0953 | 1.01 | 0.185 | 0.147 | 0.169 | 1.05 | 0.095 | 0.0953 | 0.0902
3 | SK-MES-1 | 1.04 | 0.295 | 0.163 | 0.15 | 0.536 | 0.175 | 0.192 | 0.178 |  |  |  |  | 0.5 | 0.355 | 0.16 | 0.151 | 1.23 | 0.156 | 0.161 | 0.148
4 | NCI-H1944 | 0.971 | 0.166 | 0.141 | 0.149 | 0.462 | 0.161 | 0.152 | 0.144 | 0.745 | 0.0989 | 0.128 | 0.135 | 0.936 | 0.169 | 0.143 | 0.147 | 0.522 | 0.172 | 0.11 | 0.133
5 | LK-2 | 0.888 | 0.193 | 0.177 | 0.151 | 0.574 | 0.152 | 0.133 | 0.125 | 0.448 | 0.116 | 0.0518 | 0.0532 | 0.712 | 0.182 | 0.102 | 0.176 | 0.251 | 0.152 | 0.148 | 0.161
6 | PC-3 [JPC-3] | 1.05 | 0.92 | 0.4 | 0.266 | 0.737 | 0.657 | 0.334 | 0.321 | 0.904 | 0.476 | 0.308 | 0.279 | 0.431 | 0.419 | 0.365 | 0.23 | 0.915 | 0.56 | 0.277 | 0.323
7 | COR-L23 | 0.891 | 0.162 | 0.0991 | 0.103 | 0.508 | 0.111 | 0.0846 | 0.0705 |  |  |  |  | 0.688 | 0.0875 | 0.0701 | 0.0804 | 0.41 | 0.0812 | 0.087 | 0.0797
8 | NCI-H1355 | 1.08 | 0.681 | 0.214 | 0.151 | 0.457 | 0.349 | 0.173 | 0.14 | 1.02 | 0.869 | 0.267 | 0.127 | 0.979 | 0.681 | 0.142 | 0.138 | 0.634 | 0.507 | 0.262 | 0.136
9 | NCI-H460 | 0.885 | 0.0593 | 0.0265 | 0.0308 | 0.0986 | 0.0124 | 0.0166 | 0.0082 | 0.795 | 0.0353 | 0.0383 | 0.0328 | 0.089 | 0.0117 | 0.011 | 0.0113 | 0.57 | 0.0214 | 0.0191 | 0.0236
10 | NCI-H1993 | 0.861 | 0.631 | 0.483 | 0.485 | 0.632 | 0.419 | 0.511 | 0.479 | 0.668 | 0.364 | 0.385 | 0.396 | 0.869 | 0.45 |  | 0.723 | 0.651 | 0.281 | 0.42 | 0.308
11 | ChaGo-K-1 | 0.95 | 0.246 | 0.203 | 0.146 | 0.856 | 0.25 | 0.14 | 0.102 | 0.904 | 0.389 | 0.131 | 0.117 |  |  |  |  | 0.803 | 0.197 | 0.139 | 0.112
12 | HCC-15 | 0.772 | 0.154 | 0.114 | 0.114 | 0.329 | 0.248 | 0.116 | 0.112 | 1.18 | 0.88 | 0.113 | 0.0634 | 0.63 | 0.104 | 0.0985 | 0.0923 | 0.715 | 0.355 | 0.121 | 0.124
13 | NCI-H2009 | 0.937 | 0.179 | 0.109 | 0.1 | 0.288 | 0.0748 | 0.0773 | 0.0564 |  |  |  |  | 0.493 | 0.108 | 0.101 | 0.0913 | 0.806 | 0.202 | 0.0818 | 0.0781
14 | SK-LU-1 | 1.09 | 0.227 | 0.192 | 0.196 | 0.517 | 0.176 | 0.205 | 0.186 |  |  |  |  | 0.717 | 0.178 | 0.129 | 0.13 | 0.65 | 0.241 | 0.233 | 0.208
